Like-named read-outs stand apart in the source and are kept apart here.
Test system: monocistronic NK5.1 HCV replicon in Huh7 cells
Test: HCV replicon assay, monocistronic replicon cell line
Format: cell-based, hepatitis C virus
Conditions: Hepatitis C virus, read-out: Mono EC50 Median
From the text: HCV Replicon Assays (Replicon EC50 (μM))
HCV replication can be measured by a replicon assay such as described by Vrolijk et al, J. Virol. Methods 110:201(2003), which is hereby incorporated in its entirety by reference. The method was implemented as follows.
Monocistronic Replicon Cell Line:
Human hepatocyte Huh7 cells containing the monocistronic NK5.1 replicon were obtained from Ralf Bartenschlager at the University of Mainz, Germany. These cells were maintained under hygromycin selection and passaged when 80-90% confluent.
This cell line contains an autonomously replicating RNA element (replicon) incorporating the non-structural HCV elements necessary for replication, and upon which the survival of the replicon in the cell depends. This replicon contains a single internal ribosome entry site (HCV IRES). Inhibition of any of the critical HCV finctions by a compound leads to loss of the replicon as measured by HCV replicon RNA copy number reduction. The amount of HCV RNA present following a standard incubation with a compound is a measure of the anti-HCV activity of the compound. The assay was conducted by preparing sufficient 96-well plates containing these cells, wherein cells are seeded at 6000 cells/well in a 96-well plate, in 200 μl of final media volume. Cells were then incubated for 24 hours at 37 C., 5% CO2, and 95% humidity before compound was added. Six point half-log concentration response assays were conducted to determine potency/EC50 of Formula I compounds to inhibit HCV replicon replication. The final percent DMSO acceptable in this assay system is 0.6%. Compounds were diluted in media in an appropriate format and 5 μl of each drug dilution is added to each well. Cells were then incubated with compounds for 3 days at 37 C., 5% CO2, and 95% humidity. Following the three day incubation period, plates were washed twice with phosphate buffered saline to remove media and cells were lysed with Qiagen extraction buffer. RNA was extracted and isolated with the Qiagen RNAeasy kit according to the manufacturer's protocol (Qiagen). TaqMan One-Step RT-PCR was used in conjunction with an ABI 7700 Sequence Detector (Applied Biosystems) for the quantitation and analysis of HCV replicon RNA copy number. A GAPDH probe was used for internal normalization. The ratio of HCV RNA to cellular GAPDH RNA was determined and compared to the DMSO-only treated control, and the ratio of HCV RNA/GAPDH RNA was used for an EC50 determination and as a measure of specificity for inhibition of the HCV replicon.

[1] = Huh-7, monocistronic NK5.1 HCV replicon in Huh7 cells, median value
[2] = Huh-7, 72 h, Table 1, monocistronic replicon in Huh7 cells, 3 days incubation, HCV RNA/GAPDH RNA by TaqMan RT-PCR
[3] = Huh-7, 72 h, table T3 (compounds 471-640), monocistronic replicon in Huh7 cells, 3 days incubation, HCV RNA/GAPDH RNA by TaqMan RT-PCR

Row | SMILES | EC50 [1] [µM] | EC50 [2] [µM] | EC50 [3] [µM]
1 | CCN(CC)c1ccc(-c2nc(-c3cnccc3C(F)(F)F)n[nH]2)c(O)c1 [Compound 424, 5-Diethylamino-2-[5-(4-trifluoromethyl-pyridin-3-yl)-2H-[1,2,4]triazol-3-yl]-phenol] | > 3.2 |  | 
2 | Brc1ccc(-c2nc(-c3ccccn3)n[nH]2)cc1 [Compound 433, 2-[5-(4-Bromo-phenyl)-1H-[1,2,4]triazol-3-yl]-pyridine] | > 19 |  | 
3 | FC(F)(F)c1cccnc1-n1nccc1-c1cc(Br)ccc1OCc1ccccc1 [Compound 107, 2-[5-(2-Benzyloxy-5-bromo-phenyl)-pyrazol-1-yl]-3-trifluoromethyl-pyridine] |  | 2.6 | 
4 | FC(F)(F)c1cccnc1-c1noc(-c2cccc3ccccc23)n1 [Compound 153, 2-(5-Naphthalen-1-yl-[1,2,4]oxadiazol-3-yl)-3-trifluoromethyl-pyridine] |  | 7.9 | 
5 | Oc1ccc(F)cc1-c1nc(-c2ccccn2)no1 [Compound 164, 4-Fluoro-2-(3-pyridin-2-yl-[1,2,4]oxadiazol-5-yl)-phenol] |  | 9 | 
6 | COc1ccc(-c2nc(-c3ccccn3)nn2C)c(O)c1 [Compound 601, 5-Methoxy-2-(2-methyl-5-pyridin-2-yl-2H-[1,2,4]triazol-3-yl)-phenol] |  |  | > 32
7 | COc1ccc(-c2ccnn2-c2ncccc2C(F)(F)F)c(F)c1 [Compound 52, 2-[5-(2-Fluoro-4-methoxy-phenyl)-pyrazol-1-yl]-3-trifluoromethyl-pyridine] |  | 2.1 | 
8 | Cc1cccnc1-c1n[nH]c(-c2cc(Br)cc(Br)c2O)n1 [Compound 623, 4,6-Dibromo-2-[5-(3-methyl-pyridin-2-yl)-2H-[1,2,4]triazol-3-yl]-phenol] |  |  | 1.5
9 | COc1ccc(-c2nc(-c3ccc(N)cn3)no2)c(O)c1 [Compound 253] | > 32 |  | 
10 | COc1ccc(-c2ccn(-c3ncccc3C)n2)c(OCc2ccccc2)c1 [Compound 92, 2-[3-(2-Benzyloxy-4-methoxy-phenyl)-pyrazol-1-yl]-3-methyl-pyridine] |  | 5.2 | 
11 | COc1cccc(-c2nc(-c3ncccc3[N+](=O)[O-])no2)c1 [Compound 165, 2-[5-(3-Methoxy-phenyl)-[1,2,4]oxadiazol-3-yl]-3-nitro-pyridine] |  | 18 | 
12 | COc1cc(O)c(-c2ccn(-c3ccccn3)n2)cc1OC [Compound 120, 4,5-Dimethoxy-2-(1-pyridin-2-yl-1H-pyrazol-3-yl)-p henol] |  | 31.2 | 
13 | COc1ccc(-n2nc(-c3c(O)ccc4ccccc34)cc2C)cc1 [Compound 8] |  | > 19 | 
14 | Cc1ccccc1-c1nnc(-c2ccccc2C(F)(F)F)o1 [Compound 314, 2-o-Tolyl-5-(2-trifluoromethyl-phenyl)-[1,3,4]oxadiazole] | 20 |  | 
15 | COc1ccccc1-c1ccnn1-c1ccccn1 [Compound 40, 2-[5-(2-Methoxy-phenyl)-pyrazol-1-yl]-pyridine] |  | > 32 | 
16 | Cc1cccc(-c2n[nH]c(-c3cc(C(C)(C)C)ccc3O)n2)n1 [Compound 391, 4-tert-Butyl-2-[5-(6-methyl-pyridin-2-yl)-2H-[1,2,4]triazol-3-yl]-phenol] | > 19 |  | 
17 | Oc1ccc(O)c(-c2nc(-c3ncccc3Br)n[nH]2)c1 [Compound 499, 2-[5-(3-Bromo-pyridin-2-yl)-2H-[1,2,4]triazol-3-yl]-4-Hydroxy-phenol] |  |  | 6.2
18 | Oc1ccc(Br)cc1-c1nc(-c2ncccc2C(F)(F)F)n[nH]1 [Compound 539, 4-Bromo-2-[5-(3-trifluoromethyl-pyridin-2-yl)-2H-[1,2,4]triazol-3-yl]-phenol] |  |  | 0.35
19 | Oc1ccc(Br)cc1-c1cc(-c2ncccc2C(F)(F)F)on1 [Compound 128, 4-Bromo-2-[5-(3-trifluoromethyl-pyridin-2-yl)-isoxazol-3-yl]-phenol] |  | > 32 | 
20 | Oc1ccccc1-c1nc(-c2cnccn2)n[nH]1 [Compound 585, 2-(5-pyrazin-2-yl-2H-[1,2,4]triazol-3-yl)-phenol] |  |  | > 32

Row | SMILES | EC50 [1] [µM] | EC50 [2] [µM] | EC50 [3] [µM]
21 | O=[N+]([O-])c1cccc(-c2nc(-c3cnccc3C(F)(F)F)n[nH]2)c1 [Compound 480, 3-[5-(3-Nitro-phenyl)-1H-[1,2,4]triazol-3-yl]-4-trifluoromethyl-pyridine] |  |  | > 32
22 | Cc1cccnc1-c1noc(-c2cc(N)ccc2O)n1 [Compound 270, 4-Amino-2-[3-(3-methyl-pyridin-2-yl)-[1,2,4]oxadiazol-5-yl]-phenol] | 27.7 |  | 
23 | COc1ccc(-c2ccn(-c3ncccc3C(F)(F)F)n2)c(F)c1 [Compound 51, 2-[3-(2-Fluoro-4-methoxy-phenyl)-pyrazol-1-yl]-3-trifluoromethyl-pyridine] |  | 20 | 
24 | Oc1ccccc1-c1nc(-c2ccccn2)n[nH]1 [Compound 361, 2-(5-pyridin-2-yl-2H-[1,2,4]triazol-3-yl)-phenol] | > 19 |  | 
25 | COc1ccc(-c2nc(-c3ncccc3C)n[nH]2)c(O)c1 [Compound 451, 5-Methoxy-2-(5-(3-methyl-pyridin-2-yl)-2H-[1,2,4]triazol-3-yl)-phenol] | 23 |  | 
26 | CCN(CC)c1ccc(-c2nc(-c3ncccn3)n[nH]2)c(O)c1 [Compound 571, 5-Diethylamino-2-(5-pyrimidin-2-yl-2H-[1,2,4]triazol-3-yl)-phenol] |  |  | 18
27 | Cc1cccnc1-c1n[nH]c(-c2cc(Cl)cc(Cl)c2O)n1 [Compound 622, 4,6-Dichloro-2-[5-(3-methyl-pyridin-2-yl)-2H-[1,2,4]triazol-3-yl]-phenol] |  |  | 1.4
28 | Cc1cccc(-c2n[nH]c(-c3cccc4ccccc34)n2)n1 [Compound 390, 2-Methyl-6-(5-naphthalen-1-yl-1H-[1,2,4]triazol-3-yl)-pyridine] | > 19 |  | 
29 | COc1cccnc1-c1noc(-c2cc(C)ccc2O)n1 [Compound 250, 2-[3-(3-Methoxy-pyridin-2-yl)-[1,2,4]oxadiazol-5-yl]-4-methyl-phenol] | 2 | 2 | 
30 | FC(F)(F)c1ccc(-c2noc(-c3cccc4ccccc34)n2)nc1 [Compound 227, 2-(5-Naphthalen-1-yl-[1,2,4]oxadiazol-3-yl)-5-trifluoromethyl-pyridine] | > 32 | > 32 | 
31 | O=[N+]([O-])c1ccc(-c2nc(-c3ccccn3)no2)c(Cl)c1 [Compound 141, 2-[5-(2-Chloro-4-nitro-phenyl)-[1,2,4]oxadiazol-3-yl]-pyridine] |  | 10 | 
32 | Oc1ccccc1-c1nnc(-c2ccco2)o1 [Compound 323, 2-(5-Furan-2-yl-[1,3,4]oxadiazol-2-yl)-phenol] | > 32 |  | 
33 | Oc1ccccc1-c1nnc(-c2ccccc2C(F)(F)F)o1 [Compound 320, 2-[5-(2-Trifluoromethyl-phenyl)-[1,3,4]oxadiazol-2-yl]-phenol] | > 32 |  | 
34 | Cc1ccc(O)c(-c2nc(-c3ccc(C(F)(F)F)cn3)no2)c1 [Compound 225, 4-Methyl-2-[3-(5-trifluoromethyl-pyridin-2-yl)-[1,2,4]oxadiazol-5-yl]-phenol] | 7.5 | 7.5 | 
35 | Oc1ccc(Br)cc1-c1nc(-c2ncccc2Br)n[nH]1 [Compound 492, 2-[5-(3-Bromo-pyridin-2-yl)-2H-[1,2,4]triazol-3-yl]-4-Bromo-phenol] |  |  | 5.4
36 | COc1ccccc1-c1ccn(-c2ncccc2[N+](=O)[O-])n1 [Compound 36, 2-[3-(2-Methoxy-phenyl)-pyrazol-1-yl]-3-nitro-pyridine] |  | 2.3 | 
37 | Cc1cccnc1-c1noc(-c2ccc(OCc3ccccc3)cc2O)n1 [Compound 274, 5-Benzyloxy-2-[3-(3-methyl-pyridin-2-yl)-[1,2,4]oxadiazol-5-yl]-phenol] | 1.8 |  | 
38 | COc1cccc(-c2nc(-c3ccccn3)no2)c1 [Compound 139, 2-[5-(3-Methoxy-phenyl)-[1,2,4]oxadiazol-3-yl]-pyridine] |  | 18 | 
39 | COc1cccc(-c2nc(-c3ccc(NC(C)=O)cn3)no2)c1O [Compound 260, N-{6-[5-(2-Hydroxy-3-methoxy-phenyl)-[1,2,4]oxadiazol-3-yl]-pyridin-3-yl}-acetamide] | 44.3 |  | 
40 | COc1ccccc1-c1nnc(-c2ccccn2)o1 [Compound 344, 2-[5-(2-Methoxy-phenyl)-[1,3,4]oxadiazol-2-yl]-pyridine] | > 32 |  | 
